Measured values reported in patent US20250041306A1, “TARGETED PROTEASE DEGRADATION (TED) PLATFORM” (EUBULUS BIOTHERAPEUTICS INC., priority 2021, published 2025).
pEC50: −log10 of the molar value. Like-named read-outs stand apart in the source and are kept apart here.

Key:
Format in all cases: cell-based
[1] = system: human gastric carcinoma cells N87; test: Cell proliferation experiment (Alarm blue), N87
Method: (§1) The cells were cultured in conventional ways, and the cells should be passed for at least 2 generations before plating. Cells at the logarithmic growth phase were collected, prepared into single cell suspensions and counted. The concentration of cells was adjusted to desired concentration, and cells were inoculated into a 96-well cell culture plate at 100 μl per well. 100 μL of complete medium of the test compound were added to each well, 2 replicate wells for each concentration were set up, and diluted with a 5-fold gradient, and continued to culture for 72 h. All cells were subjected to EC50 test for corresponding samples.
(§2) The fluorescence intensity of each well was detected using the Alarm blue method, and IC50 was calculated.
(§3) IC50 was calculated according to the following formula:
(§4) [formula] • wherein Min, Max and Slope represent the minimum, maximum and slope respectively.

[2] = system: Human Small Cell Lung Cancer NCI-H82; test: Cell proliferation experiment (Alarm blue), H82
Method: as §1, §2, §3, §4

Human Colon Cancer HT-29 = test: Cell proliferation experiment (Alarm blue), HT-29
Method: as §1, §2, §3, §4

[3] = system: Human Colon Cancer cells Colo205; test: Cell proliferation experiment (Alarm blue), Colo205
Method: as §1, §2, §3, §4

[4] = system: Human Small Cell Lung Cancer H69; test: Cell proliferation experiment (Alarm blue), H69
Method: as §1, §2, §3, §4

[5] = Homo sapiens, N87 cells, 72 h culture, read-out: Anti cell proliferative activity EC50, N87
[6] = Homo sapiens, NCI-H82, H82 cells, 72 h culture, read-out: Anti cell proliferative activity EC50, H82
[7] = Homo sapiens, HT-29 cells, 72 h culture, read-out: Anti cell proliferative activity EC50, HT-29
[8] = Homo sapiens, COLO 205, Colo205 cells, 72 h culture, read-out: Anti cell proliferative activity EC50, Colo205
[9] = Homo sapiens, NCI-H69, H69 cells, 72 h culture, read-out: Anti cell proliferative activity EC50, H69
[10] = N87 cells, 72 h culture, read-out: Anti cell proliferative activity EC50, N87
[11] = H82 cells, 72 h culture, read-out: Anti cell proliferative activity EC50, H82
[12] = HT-29 cells, 72 h culture, read-out: Anti cell proliferative activity EC50, HT-29
[13] = Colo205 cells, 72 h culture, read-out: Anti cell proliferative activity EC50, Colo205
[14] = H69 cells, 72 h culture, read-out: Anti cell proliferative activity EC50, H69
[15] = Homo sapiens, 72 h, N87 cells, 72 h culture, read-out: Anti cell proliferative activity EC50, N87
[16] = Homo sapiens, NCI-H82, 72 h, H82 cells, 72 h culture, read-out: Anti cell proliferative activity EC50, H82
[17] = Homo sapiens, COLO 205, 72 h, Colo205 cells, 72 h culture, read-out: Anti cell proliferative activity EC50, Colo205

CC[C@@H]1C(=O)N(C)c2cnc(Nc3ccc(-c4cn([C@H]5CC[C@@H](N(CCOCCC#Cc6cccc7c6CN(C6CCC(=O)NC6=O)C7=O)C(=O)OCCSSC[C@H](NC(=O)[C@H](CC(=O)O)NC(=O)[C@H](CC(=O)O)NC(=O)[C@H](CCCNC(=N)N)NC(=O)[C@H](CC(=O)O)NC(=O)CC[C@H](NC(=O)c6ccc(NCc7cnc8nc(N)[nH]c(=O)c8n7)cc6)C(=O)O)C(=O)O)CC5)nn4)cc3OC)nc2N1C1CCCC1 (stereo partly shown) [UB-181336]
pEC50 ([1]; 72 h): < 6.00
pEC50 ([2]; 72 h): < 6.00
pEC50 (Human Colon Cancer HT-29; 72 h): < 6.00
pEC50 ([3]; 72 h): < 6.00
pEC50 ([4]; 72 h): < 6.00

NC(=O)c1ccccc1Nc1nc(Nc2ccc(N3CCN([C@H]4CC[C@@H](NCCC#Cc5ccc6c(c5)CN(C5CCC(=O)NC5=O)C6=O)CC4)CC3)cc2)ncc1Cl (stereo partly shown) [UB-181315]
pEC50 [1, 5]: < 6.00
pEC50 [2, 6]: 6.50
pEC50 (Human Colon Cancer HT-29; [7]): < 6.00
pEC50 [3, 8]: 6.14
pEC50 [4, 9]: < 6.00

C[C@H](NC(=O)CCCCCN1C(=O)CC(SC[C@H](N)C(=O)N[C@@H](Cc2ccccc2)C(=O)N[C@H]2CSSC[C@@H](C(=O)N[C@H](CO)[C@@H](C)O)NC(=O)[C@H]([C@@H](C)O)NC(=O)[C@H](CCCCN)NC(=O)[C@@H](Cc3c[nH]c4ccccc34)NC(=O)[C@H](Cc3ccccc3)NC2=O)C1=O)C(=O)N[C@@H](C)C(=O)N[C@@H](CC(N)=O)C(=O)Nc1ccc(COC(=O)N(CCC#Cc2ccc3c(c2)CN(C2CCC(=O)NC2=O)C3=O)C2CCC(NC(=O)N3CCN(c4ccc(Nc5ncc(Cl)c(Nc6ccccc6C(N)=O)n5)cc4)CC3)CC2)cc1 (stereo partly shown) [UB-181285]
pEC50 [1, 10]: 7.30
pEC50 [2, 11]: 6.90
pEC50 (Human Colon Cancer HT-29; [12]): 6.28
pEC50 [3, 13]: 7.21
pEC50 [4, 14]: < 6.00

CNC(=O)c1ccccc1Nc1nc(Nc2ccc(N3CCC(NCC#Cc4ccc5c(c4)CN(C4CCC(=O)NC4=O)C5=O)CC3)cc2)ncc1Cl (stereo not shown) [UB-181269]
pEC50 [1, 15]: 7.54
pEC50 [2, 16]: 7.94
pEC50 (Human Colon Cancer HT-29; [7]): 7.45
pEC50 [3, 17]: 7.97
pEC50 [4, 9]: < 6.00

CNC(=O)c1ccccc1Nc1nc(Nc2ccc(N3CCN(C(=O)N[C@H]4CC[C@@H](N(CCC#Cc5ccc6c(c5)CN(C5CCC(=O)NC5=O)C6=O)C(=O)OC(C)C(C)SSC[C@H](N)C(=O)N[C@H](Cc5ccccc5)C(=O)N[C@H]5CSSC[C@@H](C(=O)N[C@H](CO)[C@@H](C)O)NC(=O)[C@H]([C@@H](C)O)NC(=O)[C@H](CCCCN)NC(=O)[C@@H](Cc6c[nH]c7ccccc67)NC(=O)[C@H](Cc6ccccc6)NC5=O)CC4)CC3)cc2)ncc1Cl (stereo partly shown) [UB-181243]
pEC50 [1, 10]: 6.18
pEC50 [2, 11]: 6.62
pEC50 (Human Colon Cancer HT-29; [12]): < 6.00
pEC50 [3, 13]: 6.51
pEC50 [4, 14]: < 6.00

CC(C)c1cc(-c2nnc(O)n2-c2ccc3c(ccn3CCC3CCN(C(=O)CCSC4CC(=O)N(CCCCCC(=O)N[C@@H](C)C(=O)N[C@@H](C)C(=O)N[C@@H](CC(N)=O)C(=O)Nc5ccc(COC(=O)N(CCC#Cc6ccc7c(c6)CN(C6CCC(=O)NC6=O)C7=O)C6CCC(NC(=O)N7CCN(c8ccc(Nc9ncc(Cl)c(Nc%10ccccc%10C(N)=O)n9)cc8)CC7)CC6)cc5)C4=O)CC3)c2)c(O)cc1O.O=CO (stereo partly shown) [UB-181290]
Anti cell proliferative activity EC50, N87 ([1]; N87 cells, 72 h culture): insoluble
Anti cell proliferative activity EC50, H82 ([2]; H82 cells, 72 h culture): insoluble
Anti cell proliferative activity EC50, HT-29 (Human Colon Cancer HT-29; HT-29 cells, 72 h culture): insoluble
Anti cell proliferative activity EC50, Colo205 ([3]; Colo205 cells, 72 h culture): insoluble
Anti cell proliferative activity EC50, H69 ([4]; H69 cells, 72 h culture): insoluble

CNC(=O)c1ccccc1Nc1nc(Nc2ccc(N3CCN(C(=O)N[C@H]4CC[C@@H](N(CCC#Cc5ccc6c(c5)CN(C5CCC(=O)NC5=O)C6=O)C(=O)OCc5ccc(NC(=O)[C@H](CC(N)=O)NC(=O)[C@H](C)NC(=O)[C@H](C)NC(=O)COCCOCCOCCOC)cc5)CC4)CC3)cc2)ncc1Cl (stereo partly shown) [UB-181242]
pEC50 [1, 5]: 6.65
pEC50 [2, 6]: 7.03
pEC50 (Human Colon Cancer HT-29; [7]): < 6.00
pEC50 [3, 8]: 7.12
pEC50 [4, 9]: < 6.00

NC(=O)c1ccccc1Nc1nc(Nc2ccc(N3CCN(C(=O)N[C@H]4C[C@@H](NCC#Cc5ccc6c(c5)CN(C5CCC(=O)NC5=O)C6=O)C4)CC3)cc2)ncc1Cl (stereo partly shown) [UB-181258]
pEC50 [1, 15]: 7.61
pEC50 [2, 16]: 7.62
pEC50 (Human Colon Cancer HT-29; [7]): 6.40
pEC50 [3, 17]: 7.42
pEC50 [4, 9]: 7.50

NC(=O)c1ccccc1Nc1nc(Nc2ccc(N3CCN(C(=O)N[C@H]4C[C@@H](NCCC#Cc5ccc6c(c5)CN(C5CCC(=O)NC5=O)C6=O)C4)CC3)cc2)ncc1Cl (stereo partly shown) [UB-181259]
pEC50 [1, 15]: 6.95
pEC50 [2, 16]: 7.68
pEC50 (Human Colon Cancer HT-29; [7]): 6.71
pEC50 [3, 17]: 7.47
pEC50 [4, 9]: 7.72

CNC(=O)c1ccccc1Nc1nc(Nc2ccc(N3CCN(C(=O)NC4CCC(N(CCC#Cc5ccc6c(c5)CN(C5CCC(=O)NC5=O)C6=O)C(=O)OCc5ccc(NC(=O)[C@H](CC(N)=O)NC(=O)[C@H](C)NC(=O)[C@H](C)NC(=O)CCCCCN6C(=O)CC(SC[C@H](N)C(=O)N[C@H](Cc7ccccc7)C(=O)N[C@H]7CSSC[C@@H](C(=O)N[C@H](CO)[C@@H](C)O)NC(=O)[C@H]([C@@H](C)O)NC(=O)[C@H](CCCCN)NC(=O)[C@@H](Cc8c[nH]c9ccccc89)NC(=O)[C@H](Cc8ccccc8)NC7=O)C6=O)cc5)CC4)CC3)cc2)ncc1Cl (stereo partly shown) [UB-181247]
pEC50 [1, 10]: 6.77
pEC50 [2, 11]: 7.04
pEC50 (Human Colon Cancer HT-29; [12]): < 6.00
pEC50 [3, 13]: 6.77
pEC50 [4, 14]: < 6.00

CC(C)c1cc(-c2nnc(O)n2-c2ccc3c(ccn3CCC3CCN(C(=O)NCCOCCOCCOCCOCCOCCOCCOCCOCCC(=O)N[C@@H](CSSCCOC(=O)N(CCC#Cc4ccc5c(c4)CN(C4CCC(=O)NC4=O)C5=O)C4CCC(NC(=O)N5CCN(c6ccc(Nc7ncc(Cl)c(Nc8ccccc8C(N)=O)n7)cc6)CC5)CC4)C(=O)N[C@H](Cc4ccccc4)C(=O)N[C@H]4CSSC[C@@H](C(=O)N[C@H](CO)[C@@H](C)O)NC(=O)[C@H]([C@@H](C)O)NC(=O)[C@H](CCCCN)NC(=O)[C@@H](Cc5c[nH]c6ccccc56)NC(=O)[C@H](Cc5ccccc5)NC4=O)CC3)c2)c(O)cc1O (stereo partly shown) [UB-181297]
pEC50 [1, 10]: < 6.00
pEC50 [2, 11]: < 6.00
pEC50 (Human Colon Cancer HT-29; [12]): < 6.00
pEC50 [3, 13]: < 6.00
pEC50 [4, 14]: < 6.00

CC[C@@H]1C(=O)N(C)c2cnc(Nc3ccc(-c4cn([C@H]5CC[C@@H](N(CCOCCC#Cc6cccc7c6CN(C6CCC(=O)NC6=O)C7=O)C(=O)OCc6ccc(NC(=O)[C@H](CC(N)=O)NC(=O)[C@H](C)NC(=O)[C@H](C)NC(=O)CCCCCN7C(=O)CC(SC[C@H](N)C(=O)N[C@@H](Cc8ccccc8)C(=O)N[C@H]8CSSC[C@@H](C(=O)N[C@H](CO)[C@@H](C)O)NC(=O)[C@H]([C@@H](C)O)NC(=O)[C@H](CCCCN)NC(=O)[C@@H](Cc9c[nH]c%10ccccc9%10)NC(=O)[C@H](Cc9ccccc9)NC8=O)C7=O)cc6)CC5)nn4)cc3OC)nc2N1C1CCCC1 (stereo partly shown) [UB-181334]
pEC50 ([1]; 72 h): 6.03
pEC50 ([2]; 72 h): 6.00
pEC50 (Human Colon Cancer HT-29; 72 h): < 6.00
pEC50 ([3]; 72 h): 6.54
pEC50 ([4]; 72 h): 6.02

CNC(=O)c1ccccc1Nc1nc(Nc2ccc(N3CCN(C(=O)NC4CCC(N(CCC#Cc5ccc6c(c5)CN(C5CCC(=O)NC5=O)C6=O)C(=O)OCc5ccc(NC(=O)[C@H](CC(N)=O)NC(=O)[C@H](C)NC(=O)[C@H](C)NC(=O)CCCCCN6C(=O)CC(SC[C@H](NC(=O)[C@H](CC(=O)O)NC(=O)[C@H](CC(=O)O)NC(=O)[C@H](CCCNC(=N)N)NC(=O)[C@H](CC(=O)O)NC(=O)CCC(NC(=O)c7ccc(NCc8cnc9nc(N)[nH]c(=O)c9n8)cc7)C(=O)O)C(=O)O)C6=O)cc5)CC4)CC3)cc2)ncc1Cl (stereo partly shown) [UB-181298]
pEC50 ([1]; 72 h): 6.56
pEC50 ([2]; 72 h): 8.06
pEC50 (Human Colon Cancer HT-29; 72 h): < 6.00
pEC50 ([3]; 72 h): 8.39
pEC50 ([4]; 72 h): < 6.00

CNC(=O)c1ccccc1Nc1nc(Nc2ccc(N3CCN(C(=O)NC4CCN(CCNCCC#Cc5ccc6c(c5)CN(C5CCC(=O)NC5=O)C6=O)CC4)CC3)cc2)ncc1Cl (stereo not shown) [UB-181240]
pEC50 [1, 15]: 7.04
pEC50 [2, 16]: 7.43
pEC50 (Human Colon Cancer HT-29; [7]): 6.74
pEC50 [3, 17]: 7.40
pEC50 [4, 9]: < 6.00
